Results reported in patent US12485079B2, “Compositions and methods relating to pigmentation” (Alastin Skincare, Inc., priority 2020, dated 2025).
One block for each compound: values may come before it.

Experiments:
[1] = system: carrageenan-induced inflammation; conditions: rats; cited from earlier work
[2] = system: UV-B-induced hyperpigmentation; conditions: topical application for 4 weeks, mice skin; cited from earlier work
[3] = system: pigmented reconstructed epidermis; conditions: cited from earlier work
[4] = system: hTERT-immortalized dermal melanocytes; conditions: human
Experimental: (§4) Melanocytes were initially plated in 6-well tissue culture plate (1.5×10^3 cells per well) in melanocyte growth media (Dermal Cell Basal Medium (ATCC® PCS-200-030 supplemented with Melanocyte Growth Kit (ATCC® PCS-200-041). Melanocytes were then expanded into 10 cm tissue culture plates at concentrations recommended by ATCC. The cells appear to fully adhere to the plate/dish while culturing with a webbed morphology. Cells were cultured at 37° C. 5% CO2 incubator.
(§5) Once the melanocytes were 100% confluent in 6-well plates, the melanocyte growth media was removed and the melanocytes were treated with media containing the above compounds; duplicate wells for each compound/concentration listed above. The duplicate vehicle control wells were fed melanocyte growth media only or melanocyte growth media with DMSO (10 uL per 10 mL melanocyte growth media).
(§6) The cells were fed the appropriate media for the next 5 days. Each day, the cells were inspected for morphology.

[5] = system: hTERT-immortalized dermal melanocytes; test: Melanocyte assay, daily inspection of morphology and survival (Example 6); conditions: both concentrations of the compound
Experimental: as §4, §5, §6

[6] = system: melanocytes (melanin production); test: In vitro melanocyte comparative analysis via absorbance readings (Example 4); assay type: cell-based; conditions: for regulation of melanogenesis (decrease of absorption = decreased melanin formation): Table 8; for Absorbance 405 nm / Absorbance 490 nm / Absorbance 492 nm: melanocyte lysates
Experimental: Melanocytes were cultured in 6-well plates containing growth media. Once confluent, 2 concentrations of each of the 10 compounds were added to the cells in triplicate wells for 4 days. There were a total of eleven 6-well plates, one for each compound treatment and one for the vehicle control. Absorbance readings were taken on the lysates prepared for each well of the 6-well plates, normalizing for cells counts. […] Additional validation was carried out using MSH addition to media to confirm increased stimulation of melanin production. The following compounds used in this study are seen in Table 7.

melanogenic genes = test: Cell line melanogenic gene activity testing, overall conclusion; assay type: cell-based, human; conditions: conclusion over melanocytes, keratinocytes, HUVECs
Experimental: (§1) Four cell types associated with pigmentation pathways-melanocytes, keratinocytes, fibroblasts and endothelial (HUVEC) cells-were analyzed for gene expression.
(§2) To simulate the UV stimulatory pigmentation pathway process, melanocytes were pre-treated with PGE2, a normal direct consequence of UV light exposure usually emanating from exposed keratinocytes. After the 48 hour attachment culture, these melanocytes were induced with 10 uM PGE2 in melanocyte media for 24 hrs. The four primary human adult dermal cell lines were cultured and plated in well plates in triplicate and then treated with 11 different compound treatments (plus DMSO control). After 48 hours of attachment culture, the remaining fibroblasts, HUVECs and keratinocytes were treated with the test compounds listed in Table 6.
(§3) After 24 hours of compound exposure, RNA lysate preparation was carried out and samples were shipped to MedGenome for RNA extraction, library construction and sequencing to 25M paired end 100 bp reads per sample. Library prep and sequencing was completed at MedGenome.

[7] = system: SCF, LIF, POMC, endothelin genes, PGE2, NGF in keratinocytes; test: Gene expression study (RNA sequencing) in keratinocytes; assay type: cell-based, human; conditions: 24 hours of compound exposure
Experimental: as §1, §2, §3

[8] = system: PMEL, tyrosinase genes, MC1/4R, EDNRB, MITF, ERK1/2, JNK, AKT1; test: Gene expression studies of Example 5; assay type: cell-based
Source text: The methods similar to Examples 3-4 were used to measure expression of PMEL, tyrosinase genes, MC1/4R, EDNRB, MITF, ERK1/2, JNK, and ANKT1.
FIGS. 10A-10D illustrates the expression of PMEL (FIG. 10A), Tyrosinase genes (FIG. 10B), MC1/4R (FIG. 10C), and EDNRB (FIG. 10D) after treatment of endothelial cells with lactoferrin (Lacto), peptide derived from lactoferrin (TCV), hexapeptide-12 (Hex12), tripeptide-1 and hexapeptide-12 (TriHex), hexapeptide-11 (Hex11), tranexamic acid (Tran acid) octapeptide (Octa), phosphatidylserine (phos), Cannabidiol (CBD), and all (total).
MITF is regulated by phosphorylation. Specifically, the MAPK and Akt pathways are known to phosphorylate MITF at certain sites. FIGS. 12A-12C illustrate the expression of ERK1/2 (MAPK3/MAPK1) (FIG. 12A), JNK (FIG. 12B), AKT1 (FIG. 12C) after treatment of endothelial cells with lactoferrin (Lacto), peptide derived from lactoferrin (TCV), hexapeptide-12 (Hex12), tripeptide-1 and hexapeptide-12 (TriHex), hexapeptide-11 (Hex11), octapeptide (Octa), phosphatidylserine (phos), Cannabidiol (CBD), and all (total).

[9] = system: melanogenic genes in melanocytes; test: Gene expression study (RNA sequencing) in PGE2-induced melanocytes; assay type: cell-based, human
Experimental: as §1, §2, §3

MITF = test: In vitro MITF gene expression test in cultured fibroblasts; assay type: cell-based; conditions: 48 hours
Experimental: Microphthalmia-associated transcription factor (MITF) is a master regulator of pigmentation and melanin transfer and a potential new target for hyperpigmentation and melanoma. In vitro MITF gene expression tests were carried out to ascertain differences between individual peptides (tripeptide-1 and hexapeptide-12) and their combination in terms of MITF downregulation.
Specifically, the tests were conducted by culturing fibroblasts and then adding tripeptide-1, hexapeptide-12, or a combination of both. After 48 hours, MITF gene expression was analyzed.

[10] = system: EDN1 and other melanogenic genes in HUVECs; test: Gene expression study (RNA sequencing) in HUVECs; assay type: cell-based, human; conditions: 24 hours of compound exposure
Experimental: as §1, §2, §3

Compound: C=C(C)[C@@H]1CCC(C)=C[C@H]1c1c(O)cc(CCCCC)cc1O [CBD, Cannabidiol]
PGE2, nitric oxide (NO), and malondialdehyde production, together with COX activity [1]: reduced

Compound: O=C(O)c1cc(O)c(O)c(O)c1 [GA, Gallic acid]
UV-B-induced hyperpigmentation [2]: significantly rescued

Compound: COc1ccc([C@@H]2CC(=O)c3c(O)cc(O[C@@H]4O[C@H](CO[C@@H]5O[C@@H](C)[C@H](O)[C@@H](O)[C@H]5O)[C@@H](O)[C@H](O)[C@H]4O)cc3O2)cc1O [Hesperidin]
skin lightening effect [3]: showed skin lightening effect

Compound: C/C=C1/[C@H](O[C@@H]2O[C@H](CO)[C@@H](O)[C@H](O)[C@H]2O)OC=C(C(=O)OC)[C@H]1CC(=O)OCCc1ccc(O)c(O)c1 [Oleuropein]
time post-initial dosing at which all or nearly all melanocytes were dead [4]: 72 h | time post-initial dosing at which melanocytes started dying [5]: 24 h

Compound: Oc1ccc2c(c1)OCO2 [Sesamol]
regulation of melanogenesis (decrease of absorption = decreased melanin formation) ([6]; melanocytes): Regulation of melanogenesis was also observed

Compound: NC[C@H]1CC[C@H](C(=O)O)CC1 [Tranexamic Acid, Tranexamic acid, reference compound]
regulation of melanogenesis (decrease of absorption = decreased melanin formation) ([6]; melanocytes): Regulation of melanogenesis was also observed

Compound: Hexapeptide-11 [HEX-11]
effects on melanogenesis activity (melanogenic genes): significant effects on melanogenesis activity | melanogenesis activity (FIGS. 6A-6F, FIG. 7) [7]: active ingredient in melanogenesis activity | regulation of melanogenesis (decrease of absorption = decreased melanin formation) ([6]; melanocytes): Regulation of melanogenesis was observed

melanogenic activity (expression of PMEL, Tyrosinase genes, MC1/4R, EDNRB; FIGS. 10A-10D) ([8]; after treatment of endothelial cells): robust melanogenic activity | effects on melanogenic activity (kinase expression linked to decreased MITF expression) ([8]; conclusion of Example 5): significant effects
Compound: Hexapeptide-12 [HEX-12]
melanogenic activity (FIGS. 3A-3D) ([9]; melanocytes pre-treated with 10 uM PGE2, 24 hours of compound exposure): particularly dominant in melanogenic activity | expression of melanogenic genes (FIG. 4, FIG. 5) ([9]; melanocytes, 24 hours of compound exposure): downregulation of melanogenic genes | effects on melanogenesis activity (melanogenic genes): significant effects on melanogenesis activity | MITF gene expression (MITF; 80 ppm Hexapeptide, negative = downregulation): −1.16 | Absorbance 405 nm ([6]; 2.9 ug/mL): 1.32 | Absorbance 490 nm ([6]; 2.9 ug/mL): 0.94 | Absorbance 492 nm ([6]; 2.9 ug/mL): 0.64 | Absorbance 405 nm ([6]; 4.9 ug/mL): 0.96 | Absorbance 490 nm ([6]; 4.9 ug/mL): 0.64 | Absorbance 492 nm ([6]; 4.9 ug/mL): 0.46 | stimulation of melanin production (model validation) ([6]; melanocytes): decreased stimulation | regulation of melanogenesis (decrease of absorption = decreased melanin formation) ([6]; melanocytes): Regulation of melanogenesis was observed

Compound: Phosphatidylserine
effects on melanogenesis activity (melanogenic genes): significant effects on melanogenesis activity | activity on EDN1 and other melanogenic genes (FIG. 9) [10]: potent activity | regulation of melanogenesis (decrease of absorption = decreased melanin formation) ([6]; melanocytes): Regulation of melanogenesis was observed

Compound: Tripeptide-1
MITF gene expression (MITF; 120 xppm Tripeptide, positive = upregulation): 1.72 | MITF gene expression (MITF; 120 xppm Tripeptide, positive = upregulation, listed as tripeptide-1): +1.72
